Key:
[1] = molecular target: T1, human PPARα ligand binding domain (LBD) (Homo sapiens, UniProt Q07869); assay: Cell-based GAL4 PPAR transactivation assay in HEK293 cells, PPARα; conditions: 24 h
T1 construct: human PPARα (S167-Y468); expressed in transfected cells; host or cells: HEK293
T1 sequence (Q07869 167-468): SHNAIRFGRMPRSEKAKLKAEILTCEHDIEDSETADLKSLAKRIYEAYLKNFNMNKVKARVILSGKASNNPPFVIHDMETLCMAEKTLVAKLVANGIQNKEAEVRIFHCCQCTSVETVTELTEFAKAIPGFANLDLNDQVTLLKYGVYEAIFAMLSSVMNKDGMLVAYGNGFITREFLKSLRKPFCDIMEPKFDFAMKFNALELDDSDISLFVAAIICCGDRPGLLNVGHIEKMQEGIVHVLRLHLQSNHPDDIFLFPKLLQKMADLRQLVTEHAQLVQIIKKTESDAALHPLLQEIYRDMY
Protocol: (§1) The peroxisome proliferator-activated receptors (PPARs), PPARα, PPARδ, and PPARγ are ligand-dependent transcription factors that control expression of several key metabolism-associated genes. The transcriptional activity of representative compounds of formula I to these receptors was assessed using a cell-based GAL4 transactivation assay in HEK293 cells transfected with either PPARα, PPARδ, or PPARγ ligand binding domain (LBD), and was compared to that of the full control agonists GW7647 (PPARα), GW0742 (PPARδ), and rosiglitazone (PPARγ).
(§2) Plasmids: The hinge region and ligand binding domain (LBD) from human PPARα (S167-Y468), PPARδ (S139-Y440) and PPARγ (S176-Y477) were PCR-amplified from a PPARα cDNA clone (cDNA Resource Center, http://www.cdna.org) or from PPARδ1 and PPARγ1 LBD gBlocks™ gene fragments (Integrated DNA Technologies). The PPAR LBD PCR products were inserted in frame with the GAL4 DNA binding domain in the pFN26A(BIND)-hRlu-neo Flexi vector (Promega) at SgfI and PmeI sites to generate GAL4-PPAR-Rluc.
(§3) Cell-based PPAR transactivation assay. HEK293 cells were co-transfected with pGL4.35[luc2P/9XGAL4UAS/Hygro] (Promega) and GAL4-PPAR-Rluc plasmids, and after 24 h of incubation were treated with compounds for 24 h. Luciferase activity was determined with the Dual Glo™ luciferase assay (Promega). Firefly luminescence was normalized to the constitutively expressed Renilla luminescence, and results expressed as fold induction of vehicle control or percentage of reference agonist maximal activity.

[2] = molecular target: T2, human PPARδ ligand binding domain (LBD) (Homo sapiens, UniProt Q03181); assay: Cell-based GAL4 PPAR transactivation assay in HEK293 cells, PPARδ; conditions: 24 h
T2 construct: PPARδ (S139-Y440); host or cells: HEK293
T2 sequence (Q03181 139-441 limits assumed): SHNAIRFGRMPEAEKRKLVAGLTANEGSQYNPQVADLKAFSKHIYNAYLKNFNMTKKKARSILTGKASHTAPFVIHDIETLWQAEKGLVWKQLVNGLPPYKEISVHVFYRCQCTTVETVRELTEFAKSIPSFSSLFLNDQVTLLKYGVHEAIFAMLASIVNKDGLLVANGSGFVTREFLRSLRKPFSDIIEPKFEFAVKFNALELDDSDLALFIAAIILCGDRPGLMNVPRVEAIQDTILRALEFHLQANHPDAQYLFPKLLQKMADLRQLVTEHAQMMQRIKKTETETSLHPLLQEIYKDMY
Protocol: as §1, §2, §3

[3] = molecular target: T3, human PPARγ ligand binding domain (LBD) (Homo sapiens, UniProt P37231); assay: Cell-based GAL4 PPAR transactivation assay in HEK293 cells, PPARγ; conditions: 24 h
T3 construct: PPARγ (S176-Y477); host or cells: HEK293
T3 sequence (P37231 176-477 isoform P37231-2): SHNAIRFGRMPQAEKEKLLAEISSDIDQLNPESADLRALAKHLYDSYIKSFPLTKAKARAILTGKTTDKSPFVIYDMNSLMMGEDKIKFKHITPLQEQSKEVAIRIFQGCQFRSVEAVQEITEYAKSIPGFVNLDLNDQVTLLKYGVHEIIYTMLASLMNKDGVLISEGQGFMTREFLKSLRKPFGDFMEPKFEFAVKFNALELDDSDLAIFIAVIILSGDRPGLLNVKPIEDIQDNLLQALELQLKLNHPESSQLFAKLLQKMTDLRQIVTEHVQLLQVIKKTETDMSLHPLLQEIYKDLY
Protocol: as §1, §2, §3

In the case of `CC1(C)CC1CCCCC1CC1C(=O)[O-].[Na+]` (stereo not shown), the “PPARα (GAL4 reporter) % efficacity relative to GW7647” value [1] is reported as 43%, the “PPARδ (GAL4 reporter) % efficacity relative to GW0742” value [2] is reported as 5% and the “PPARγ (GAL4 reporter) % efficacity relative to rosiglitazone” value [3] is reported as 5%.
With `CCCCCCC1C(CC(=O)[O-])C1(C)C.[Na+]` (stereo not shown) [drawing 322] the “PPARα (GAL4 reporter) % efficacity relative to GW7647” value [1] was 91%, the “PPARδ (GAL4 reporter) % efficacity relative to GW0742” value [2] was 2% and the “PPARγ (GAL4 reporter) % efficacity relative to rosiglitazone” value [3] was 8%.
In the case of `CCCCCCC1C(CC(=O)[O-])C1(C)C.[Na+]` (stereo not shown) [drawing 323], the “PPARα (GAL4 reporter) % efficacity relative to GW7647” value [1] is reported as 33%, the “PPARδ (GAL4 reporter) % efficacity relative to GW0742” value [2] is reported as −6% and the “PPARγ (GAL4 reporter) % efficacity relative to rosiglitazone” value [3] is reported as 4%.
In the case of `CC1(C)CC1CCCCC/C=C/C(=O)[O-].[Na+]` (stereo not shown), the “PPARα (GAL4 reporter) % efficacity relative to GW7647” value [1] is reported as 10%, the “PPARδ (GAL4 reporter) % efficacity relative to GW0742” value [2] is reported as 30% and the “PPARγ (GAL4 reporter) % efficacity relative to rosiglitazone” value [3] is reported as 1%.
For `[2H]C1([2H])C(CCCCCC)C1CC(=O)[O-].[Na+]` (stereo not shown), the “PPARα (GAL4 reporter) % efficacity relative to GW7647” value [1] was 20%, the “PPARδ (GAL4 reporter) % efficacity relative to GW0742” value [2] was 2% and the “PPARγ (GAL4 reporter) % efficacity relative to rosiglitazone” value [3] was 3%.
In the case of `CCCCCCC1C(CC(=O)[O-])C1(Br)Br.[Na+]` (stereo not shown) [Compound II, Sodium 2-(2,2-dibromo-3-hexylcyclopropyl)acetate], the melting point is reported as 108 to 111 °C.
With `CCCCCCCC1CC1C(=O)[O-].[Na+]` (stereo not shown) the “PPARα (GAL4 reporter) % efficacity relative to GW7647” value [1] was 90%, the “PPARδ (GAL4 reporter) % efficacity relative to GW0742” value [2] was 4% and the “PPARγ (GAL4 reporter) % efficacity relative to rosiglitazone” value [3] was 16%.
In the case of `CCCCCCC1CC1C(=O)C(=O)[O-].[Na+]` (stereo not shown), the “PPARα (GAL4 reporter) % efficacity relative to GW7647” value [1] is reported as 34%, the “PPARδ (GAL4 reporter) % efficacity relative to GW0742” value [2] is reported as −3% and the “PPARγ (GAL4 reporter) % efficacity relative to rosiglitazone” value [3] is reported as 2%.

Reference: patent US20230107538A1, “CYCLOALKYL-CONTAINING CARBOXYLIC ACIDS AND USES THEREOF” (LIMINAL BIOSCIENCES LIMITED, priority 2019, published 2023)
